# Data: patent USRE47475E1, “Selective agents for pain suppression” (WiSys Technology Foundation, Inc., priority 2002, dated 2019)
# How the values were obtained:
# [1] = tested on: Formalin Pain (mouse, i.p.); assay: T22 formalin test (chemically induced pain); type: in vivo
# Method: This elicits a distinct bi-phasic behavioral profile in response to the formalin injection characterized by licking of the affected paw, and the number of licks is measured as a proxy for perceived pain. The first (acute) phase is thought to correspond to the direct stimulation of peripheral fibers while the second (inflammatory) phase is caused by the release of inflammatory mediators from the damaged tissue and nerve endings. Thus, this model is ideally suited for efficacy of an investigational AED against the acute and chronic hyper-responsive neuronal discharges following activation of peripheral nerve fibers.
# The results of the formalin test are given both as raw data (“Response”) and in an aggregate, analyzed form (“Analysis”). In the Response section, each Trial involves sixteen animals, eight controls given an i.p. injection of vehicle and eight given the compound at a specified dose. Thus, for multiple doses of the compound, there will also be multiple control groups. The data recorded for each animal is the amount of time(s) spent licking the affected hind paw in a two minute period. These two minute periods occur at five minute intervals and continue for 45 minutes. […] From this plot, we can then determine the area under the curve (AUC) for each animal during both the acute and inflammatory stages. The AUC for each phase is shown in the analysis section of the data sheet for both control and drug-treated animals The AUC for each drug-treated animal is compared to the average result from the control group, yielding an average percent of control (reported with the SEM and p value).
# [2] = tested on: neuropathic pain after CCI of the sciatic nerve; assay: chronic constriction injury (CCI) model, mechanical sensitization (von Frey filaments); type: in vivo, mice
# Method: (§1) In addition, the pro- or antinociceptive effects of the compounds of the present invention are analyzed in the chronic constriction injury (CCI) model. The GABAA receptor subunit selective test compounds of the present invention are analysed in the CCI model in 7-8-week-old C57BL/6 mice. See Bennett, G. J. & Xie, Y. K. A peripheral mononeuropathy in rat that produces disorders of pain sensation like those seen in man. […] Seven to eight week old mice are anesthetized with isofluran. Unilateral constriction injury of the left sciatic nerve just proximal to the trifurcation is performed with three loose ligatures. In sham-operated animals the sciatic nerve is exposed and the connective tissue is freed, but no ligatures are applied. […] Heat hyperalgesia, cold allodynia and mechanical sensitization are assessed 7-9 days after surgery. Mechanical sensitivity is assessed with electronic von Frey filaments (IITC).
# Pain studies—Neuropathic pain: HZ166 and gabapentin were analyzed in the chronic constriction injury (CCI) model. Unilateral constriction injury of the left sciatic nerve just proximal to the trifurcation was performed as described previously (Bennett and Xie, 1988). Anesthesia was induced and maintained by 2% isoflurane, combined with oxygen (30%). The sciatic nerve was exposed at the mid-thigh level proximal to the sciatic trifurcation by blunt dissection through the biceps femoris muscle. […] of nerve were freed of adhering tissue and three chromic gut ligatures (4/0) (Ethicon) were loosely put around the nerve with about 1 mm spacing. The ligatures were tied until they elicited a brief twitch in the hindlimb. The surgical wound was closed in layers. Heat hyperalgesia and mechanical sensitization were assessed 7-16 days after surgery.
# Pain Studies—Mechanical sensitization: Mechanical sensitivity was assessed with dynamic von Frey filaments (IITC, Woodland Hills, Calif.). 4-5 measurements were made for each time point and animal and averaged. Measurements of paw withdrawal thresholds of the injured paw and of the contralateral paw were made alternately.
# Statistical Analysis: For all different doses and vehicle, baseline paw withdrawal thresholds/latencies on day 7 after nerve ligation or on day 2 after zymosan A injection were subtracted from all later withdrawal thresholds and the area under the curve (AUC) was calculated. Drug effects were expressed as percent maximum possible effect (MPE) calculated from comparisons of paw withdrawal latencies or thresholds obtained prior to surgery or inflammation and before and after drug treatment. […] Unless otherwise indicated, statistical comparisons were made with one-way analysis of variance (ANOVA) followed by Scheffe's post hoc test. P values<0.05 were considered significant.
# [3] = tested on: thermal hyperalgesia after CCI of the sciatic nerve; assay: chronic constriction injury (CCI) model, heat hyperalgesia (plantar test); type: in vivo, mice; settings: 16 mg/kg i.p.
# Method: as §1, with “ligatures.” for “ligatures. In sham-operated animals the sciatic nerve is exposed and the connective tissue is freed, but no ligatures are applied.”
# Heat hyperalgesia is assessed by measuring paw withdrawal latencies on exposure to a defined radiant heat stimulus are measured with a commercially available apparatus (Plantar Test; Ugo Basile). […]
# Pain studies—Neuropathic pain: HZ166 and gabapentin were analyzed in the chronic constriction injury (CCI) model. […] Heat hyperalgesia and mechanical sensitization were assessed 7-16 days after surgery.
# Pain Studies—Heat hyperalgesia: Paw withdrawal latencies upon exposure to a defined radiant heat stimulus were measured using a commercially available apparatus (Plantar Test, Ugo Basile, Comerio, Italy). […]
# [4] = tested on: inflammatory hyperalgesia induced by zymosan A; assay: zymosan A model of inflammatory pain, mechanical sensitization; type: in vivo, mice; settings: 16 mg/kg i.p., 48 hours after zymosan A; n=6
# Method: Inflammatory pain is assessed in the zymosan A model. See Hargreaves, K., Dubner, R., Brown, F., Flores, C. & Joris, J. A new and sensitive method for measuring thermal nociception in cutaneous hyperalgesia. Pain 32, 77-88 (1988). Inflammatory pain is induced by subcutaneous injection of zymosan A (0.06 mg in mice; 1 mg in rats) into one hindpaw. In mice, 0.06 mg of zymosan A suspended in […] of 0.9% NaCl is injected subcutaneously into the plantar side of the left hindpaw. The model is also used in rats, but 1 mg of zymosan A is used. Heat hyperalgesia is assessed 24 h and 6 h after induction of inflammation in mice and rats, respectively.
# Pain Studies—Inflammatory pain: Inflammatory pain was studied in the zymosan A model (Meller and Gebhart, 1997). 0.06 mg zymosan A (Sigma Chemicals) suspended in 20 μl 0.9% NaCl was injected subcutaneously into the plantar side of the left hindpaw. Mechanical sensitization was assessed 48 hours after induction of inflammation.
# Pain Studies—Mechanical sensitization: Mechanical sensitivity was assessed with dynamic von Frey filaments (IITC, Woodland Hills, Calif.). […]
# Statistical Analysis: For all different doses and vehicle, baseline paw withdrawal thresholds/latencies on day 7 after nerve ligation or on day 2 after zymosan A injection were subtracted from all later withdrawal thresholds and the area under the curve (AUC) was calculated. […]
# [5] = tested on: locomotor activity of mice; assay: spontaneous locomotor activity (activity cage); type: in vivo
# Method: Locomotor activity: Spontaneous locomotor activity was tested using a commercially available microprocessor equipped activity cage (actiframe, Gerb Elektronik). Mice were placed in the activity cage 15 min before testing. Locomotor activity was measured for 1 h after intraperitoneal administration of vehicle, gabapentin or HZ166 during the early light phase of the day-night cycle.
# [6] = mice and rats after intraperitoneal (i.p.) application; Rivas et al., 2009; cited from earlier work
# seizures = settings: Rivas et al., 2009, cited from earlier work
# Cyp = Cyp profile
smiles,measurement,setting,value
"C#Cc1ccc2c(c1)C(c1ccccn1)=NCc1c(C(=O)OCC)ncn1-2 [HZ-166, 8-Acetylenyl-6-pyridin-2-yl-4H-benzo[f]imidazo[1,5-a][1,4]diazepine-3-carboxylic acid ethyl ester]",protection at the acute phase of chemically induced pain,"[1]; formalin test, acute phase",significant protection
same,"Change (% of Control) ± SEM, T22 Formalin Pain, Acute","[1]; mouse, i.p., acute phase, dose 16 (HZ-166), 10 (JY-XHE-053), 1 (XLI-JY-DMH) mg/kg",66.8 % of Control
same,"Change (% of Control) ± SEM, T22 Formalin Pain, inflammatory","[1]; mouse, i.p., inflammatory phase, dose 16 (HZ-166), 10 (JY-XHE-053), 1 (XLI-JY-DMH) mg/kg",63 % of Control
same,"analgesia, mechanical sensitivity (von Frey) in CCI model","[2]; 48 mg/kg, 160 mg/kg and 480 mg/kg i.p.",significant analgesia
same,"AUC of mechanical PWT, HZ166 followed by vehicle","[2]; HZ166 16 mg/kg i.p., vehicle 45 min later, n=6",1.90 ± 0.29 g·h
same,ED50,"[2]; Mus musculus, ip, 168 h, i.p., day 7 after CCI surgery, Hill fit, read-out: ED50, increase of ipsilateral PWT",3.83 ± 0.94 mg/kg
same,reversal of mechanical hypersensitivity,"[2]; i.p., CCI model",dose-dependent reversal
same,PWTs of the contralateral paw,"[2]; i.p., day 7 after CCI surgery",not affected
same,time of maximum effect on ipsilateral PWT after injection,"[2]; i.p., day 7 after CCI surgery",about 1 h
same,doses at which saturation of the antihyperalgesic effect was reached,"[2]; i.p., mechanical PWT",≥ 160 mg/kg
same,doses with statistically significant antihyperalgesic effects,"[2]; i.p., mechanical PWT",≥ 16 mg/kg
same,analgesic effects in the chronic constriction injury model of neuropathic pain,"[2]; mouse, in vivo",analgesic effects
same,time of peak effect on PWLs after administration,[3],1 h
same,"AUC of PWL, injured paw","[3]; 7 days after surgery, n=6",4.33±1.95 s*h
same,AUC of mechanical PWT,[4],1.55 ± 0.21 g·h
same,impairment of spontaneous motor activity,[5]; 16 and 48 mg/kg i.p.,did not significantly impair
same,doses that did not impair spontaneous locomotor activity,[5]; i.p.,≤ 48 mg/kg
same,sedation,[5]; mouse model of neuropathic pain study,not sedating
same,pharmacokinetics,[6],suitable
same,toxicity,seizures,minimal
same,anticonvulsive activity,seizures; at non-sedative doses,good anticonvulsive activity
same,Cyp profile,Cyp,good
